From PubChem BioAssay (NCI)
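96-well plates; 48 h exposure; 5 concentrations. Endpoints by linear interpolation between flanking doses. Not reached: highest tested concentration assigned. The concentration for 50% growth inhibition is given as GI50. TGI is the concentration that stops growth completely.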

Key:
Assay in all cases: NCI-60 cell line screen, 48 h
786-0 renal = system: 786-0 renal
A498 renal = system: A498 renal
A549 NSCLC = system: A549 NSCLC
ACHN renal = system: ACHN renal
BT-549 breast = system: BT-549 breast
CAKI-1 renal = system: CAKI-1 renal
CCRF-CEM leukemia = system: CCRF-CEM leukemia
COLO 205 colon = system: COLO 205 colon
DU-145 prostate = system: DU-145 prostate
EKVX NSCLC = system: EKVX NSCLC
HCC-2998 colon = system: HCC-2998 colon
HCT-116 colon = system: HCT-116 colon
HCT-15 colon = system: HCT-15 colon
HL-60(TB) leukemia = system: HL-60(TB) leukemia
HOP-62 NSCLC = system: HOP-62 NSCLC
HOP-92 NSCLC = system: HOP-92 NSCLC
HS 578T breast = system: HS 578T breast
HT29 colon = system: HT29 colon
IGROV1 ovarian = system: IGROV1 ovarian
K-562 leukemia = system: K-562 leukemia
KM12 colon = system: KM12 colon
LOX IMVI melanoma = system: LOX IMVI melanoma
M14 melanoma = system: M14 melanoma
MALME-3M melanoma = system: MALME-3M melanoma
MCF7 breast = system: MCF7 breast
MDA-MB-231 breast = system: MDA-MB-231 breast
MDA-MB-435 = system: MDA-MB-435
MOLT-4 leukemia = system: MOLT-4 leukemia
NCI-H226 lung = system: NCI-H226 lung
NCI-H23 lung = system: NCI-H23 lung
NCI-H460 lung = system: NCI-H460 lung
NCI-H522 lung = system: NCI-H522 lung
NCI/ADR-RES ovarian = system: NCI/ADR-RES ovarian
OVCAR-3 ovarian = system: OVCAR-3 ovarian
OVCAR-4 ovarian = system: OVCAR-4 ovarian
OVCAR-5 ovarian = system: OVCAR-5 ovarian
OVCAR-8 ovarian = system: OVCAR-8 ovarian
PC-3 prostate = system: PC-3 prostate
RPMI-8226 leukemia = system: RPMI-8226 leukemia
RXF 393 renal = system: RXF 393 renal
SF-268 CNS = system: SF-268 CNS
SF-295 CNS = system: SF-295 CNS
SF-539 CNS = system: SF-539 CNS
SK-MEL-2 melanoma = system: SK-MEL-2 melanoma
SK-MEL-28 melanoma = system: SK-MEL-28 melanoma
SK-OV-3 ovarian = system: SK-OV-3 ovarian
SN12C renal = system: SN12C renal
SNB-19 CNS = system: SNB-19 CNS
SNB-75 CNS = system: SNB-75 CNS
SW-620 colon = system: SW-620 colon
T-47D breast = system: T-47D breast
TK-10 renal = system: TK-10 renal
UACC-257 melanoma = system: UACC-257 melanoma
UO-31 renal = system: UO-31 renal
SK-MEL-5 melanoma = system: SK-MEL-5 melanoma
SR leukemia = system: SR leukemia
U251 CNS = system: U251 CNS
UACC-62 melanoma = system: UACC-62 melanoma

## COc1cccc2c1C(=O)c1c(O)c3c(c(O)c1C2=O)CC(O)(/C(C)=N/NC(=O)CCC(=O)N/N=C(\C)C1(O)Cc2c(O)c4c(c(O)c2C(OC2CC(N)C(O)C(C)O2)C1)C(=O)c1c(OC)cccc1C4=O)CC3OC1CC(N)C(O)C(C)O1 (stereo not drawn)
786-0 renal
  GI50: 182 nM
  TGI: 1060 nM
A498 renal
  GI50: 161 nM
  TGI: 939 nM
A549 NSCLC
  GI50: 414 nM
  TGI: 1810 nM
ACHN renal
  GI50: 277 nM
  TGI: 2900 nM
BT-549 breast
  GI50: 671 nM
  TGI: 2270 nM
CAKI-1 renal
  GI50: 895 nM
  TGI: 17700 nM
CCRF-CEM leukemia
  GI50: 113 nM
  TGI: 7170 nM
COLO 205 colon
  GI50: 157 nM
  TGI: 795 nM
DU-145 prostate
  GI50: 302 nM
  TGI: 2970 nM
EKVX NSCLC
  GI50: 1120 nM
  TGI: 22100 nM
HCC-2998 colon
  GI50: 508 nM
  TGI: 1460 nM
HCT-116 colon
  GI50: 147 nM
  TGI: 914 nM
HCT-15 colon
  GI50: 3510 nM
  TGI: > 50000 nM
HL-60(TB) leukemia
  GI50: 397 nM
  TGI: 4230 nM
HOP-62 NSCLC
  GI50: 190 nM
  TGI: 1570 nM
HOP-92 NSCLC
  GI50: 438 nM
HS 578T breast
  GI50: 261 nM
  TGI: 2300 nM
HT29 colon
  GI50: 333 nM
  TGI: > 10500 nM
IGROV1 ovarian
  GI50: 108 nM
  TGI: 1080 nM
K-562 leukemia
  GI50: 341 nM
  TGI: 7690 nM
KM12 colon
  GI50: 755 nM
  TGI: > 14500 nM
LOX IMVI melanoma
  GI50: 126 nM
  TGI: 1050 nM
M14 melanoma
  GI50: 292 nM
  TGI: 2120 nM
MALME-3M melanoma
  GI50: 285 nM
  TGI: 1120 nM
MCF7 breast
  GI50: 67.6 nM
  TGI: 7410 nM
MDA-MB-231 breast
  GI50: 1170 nM
  TGI: > 50000 nM
MDA-MB-435
  GI50: 552 nM
  TGI: 3290 nM
MOLT-4 leukemia
  GI50: 142 nM
NCI-H226 lung
  GI50: 324 nM
  TGI: 1390 nM
NCI-H23 lung
  GI50: 186 nM
  TGI: 1430 nM
NCI-H460 lung
  GI50: 98.1 nM
  TGI: 947 nM
NCI-H522 lung
  GI50: 50.3 nM
  TGI: 327 nM
NCI/ADR-RES ovarian
  GI50: 13500 nM
  TGI: > 50000 nM
OVCAR-3 ovarian
  GI50: 259 nM
  TGI: 2660 nM
OVCAR-4 ovarian
  GI50: 885 nM
  TGI: > 21400 nM
OVCAR-5 ovarian
  GI50: 1020 nM
  TGI: 3680 nM
OVCAR-8 ovarian
  GI50: 306 nM
  TGI: > 50000 nM
PC-3 prostate
  GI50: 958 nM
  TGI: > 21200 nM
RPMI-8226 leukemia
  GI50: 209 nM
  TGI: 4170 nM
RXF 393 renal
  GI50: 376 nM
  TGI: 1350 nM
SF-268 CNS
  GI50: 259 nM
  TGI: 8110 nM
SF-295 CNS
  GI50: 420 nM
  TGI: 6510 nM
SF-539 CNS
  GI50: 179 nM
  TGI: 859 nM
SK-MEL-2 melanoma
  GI50: 111 nM
  TGI: 343 nM
SK-MEL-28 melanoma
  GI50: 371 nM
  TGI: 1350 nM
SK-OV-3 ovarian
  GI50: 475 nM
  TGI: 2400 nM
SN12C renal
  GI50: 234 nM
  TGI: > 50000 nM
SNB-19 CNS
  GI50: 198 nM
  TGI: 1380 nM
SNB-75 CNS
  GI50: 222 nM
  TGI: 2010 nM
SW-620 colon
  GI50: 193 nM
  TGI: 5360 nM
T-47D breast
  GI50: 172 nM
  TGI: 1680 nM
TK-10 renal
  GI50: 574 nM
  TGI: 6690 nM
UACC-257 melanoma
  GI50: 781 nM
  TGI: 3280 nM
UO-31 renal
  GI50: 158 nM
  TGI: 1090 nM

## COc1cc(-c2nn(-c3cccc(NC(=O)Nc4ccc(Cl)c(Cl)c4)c3)cc2-c2ccncc2)ccc1Cl
786-0 renal
  GI50: 1310 nM
  TGI: 4480 nM
A498 renal
  GI50: 1140 nM
  TGI: 4590 nM
A549 NSCLC
  GI50: 745 nM
  TGI: > 50000 nM
ACHN renal
  GI50: 1000 nM
  TGI: > 50000 nM
BT-549 breast
  GI50: 1680 nM
  TGI: 27600 nM
CAKI-1 renal
  GI50: 1120 nM
  TGI: 3700 nM
COLO 205 colon
  GI50: 937 nM
  TGI: 1720 nM
DU-145 prostate
  GI50: 1520 nM
  TGI: 34200 nM
HCC-2998 colon
  GI50: 1560 nM
  TGI: 6200 nM
HCT-116 colon
  GI50: 1210 nM
  TGI: > 50000 nM
HCT-15 colon
  GI50: 1230 nM
  TGI: > 50000 nM
HL-60(TB) leukemia
  GI50: 1660 nM
  TGI: > 50000 nM
HOP-62 NSCLC
  GI50: 1440 nM
  TGI: 4900 nM
HOP-92 NSCLC
  GI50: 151 nM
  TGI: 1470 nM
HS 578T breast
  GI50: 1430 nM
  TGI: > 50000 nM
HT29 colon
  GI50: 1240 nM
  TGI: 6460 nM
IGROV1 ovarian
  GI50: 1180 nM
  TGI: 3480 nM
K-562 leukemia
  GI50: 890 nM
  TGI: > 50000 nM
KM12 colon
  GI50: 811 nM
  TGI: 2770 nM
LOX IMVI melanoma
  GI50: 953 nM
  TGI: 2620 nM
M14 melanoma
  GI50: 911 nM
  TGI: 2690 nM
MALME-3M melanoma
  GI50: 926 nM
  TGI: 2420 nM
MCF7 breast
  GI50: 945 nM
  TGI: > 50000 nM
MDA-MB-231 breast
  GI50: 698 nM
  TGI: 1920 nM
MDA-MB-435
  GI50: 938 nM
  TGI: 2390 nM
MOLT-4 leukemia
  GI50: 1100 nM
  TGI: 4480 nM
NCI-H226 lung
  GI50: 1350 nM
  TGI: > 50000 nM
NCI-H23 lung
  GI50: 1410 nM
  TGI: 5190 nM
NCI-H460 lung
  GI50: 1110 nM
  TGI: > 50000 nM
NCI-H522 lung
  GI50: 811 nM
  TGI: 3100 nM
NCI/ADR-RES ovarian
  GI50: 990 nM
  TGI: 4670 nM
OVCAR-3 ovarian
  GI50: 697 nM
  TGI: 2270 nM
OVCAR-4 ovarian
  GI50: 1290 nM
  TGI: > 50000 nM
OVCAR-5 ovarian
  GI50: 2130 nM
  TGI: > 50000 nM
OVCAR-8 ovarian
  GI50: 931 nM
  TGI: 3610 nM
PC-3 prostate
  GI50: 554 nM
  TGI: 2830 nM
RPMI-8226 leukemia
  GI50: 388 nM
  TGI: 3260 nM
RXF 393 renal
  GI50: 859 nM
  TGI: 2440 nM
SF-268 CNS
  GI50: 1510 nM
  TGI: 20300 nM
SF-295 CNS
  GI50: 691 nM
  TGI: 2530 nM
SF-539 CNS
  GI50: 965 nM
  TGI: 3080 nM
SK-MEL-2 melanoma
  GI50: 1140 nM
  TGI: 2350 nM
SK-MEL-28 melanoma
  GI50: 1430 nM
  TGI: 7320 nM
SK-MEL-5 melanoma
  GI50: 741 nM
  TGI: 1490 nM
SK-OV-3 ovarian
  GI50: 1930 nM
  TGI: > 50000 nM
SN12C renal
  GI50: 1470 nM
  TGI: > 50000 nM
SNB-19 CNS
  GI50: 1720 nM
  TGI: > 50000 nM
SNB-75 CNS
  GI50: 1050 nM
  TGI: 5170 nM
SR leukemia
  GI50: 932 nM
  TGI: 2800 nM
SW-620 colon
  GI50: 1590 nM
  TGI: > 50000 nM
T-47D breast
  GI50: 1420 nM
  TGI: > 50000 nM
TK-10 renal
  GI50: 1430 nM
  TGI: 40900 nM
U251 CNS
  GI50: 820 nM
  TGI: 2470 nM
UACC-257 melanoma
  GI50: 1040 nM
  TGI: 3110 nM
UACC-62 melanoma
  GI50: 773 nM
  TGI: 1860 nM
UO-31 renal
  GI50: 845 nM
  TGI: 4960 nM
